Measurements reported in publication PMC7658267, “Effects of CYP46A1 Inhibition on Long-Term-Depression in Hippocampal Slices ex vivo and 24S-Hydroxycholesterol Levels in Mice in vivo” (Frontiers in Molecular Neuroscience, 2020).
Read-outs that look alike come from different tables or passages of the source.

Assays:
Test in all cases: biochemical
Human Eta = target: T1, Human Eta (Homo sapiens, UniProt P25101); design: CEREP off-target binding panel, per cent inhibition at 10 uM, n = 2
T1 construct: gene EDNRA

Human A2A = target: T2, Human A2A (Homo sapiens, UniProt P29274); design: CEREP off-target binding panel, per cent inhibition at 10 uM, n = 2
T2 construct: gene ADORA2A
T2 sequence (P29274 whole entry): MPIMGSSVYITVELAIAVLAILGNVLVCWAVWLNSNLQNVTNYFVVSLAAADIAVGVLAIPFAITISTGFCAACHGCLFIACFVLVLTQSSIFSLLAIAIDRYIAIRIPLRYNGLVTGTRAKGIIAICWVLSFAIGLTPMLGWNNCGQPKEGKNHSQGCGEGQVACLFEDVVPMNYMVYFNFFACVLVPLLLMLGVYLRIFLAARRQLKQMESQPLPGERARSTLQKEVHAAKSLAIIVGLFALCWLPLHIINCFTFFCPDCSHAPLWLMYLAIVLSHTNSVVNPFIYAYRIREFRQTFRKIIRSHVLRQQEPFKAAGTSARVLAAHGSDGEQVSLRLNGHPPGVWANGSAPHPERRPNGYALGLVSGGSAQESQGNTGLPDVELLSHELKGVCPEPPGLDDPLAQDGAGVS

Human MC4 = target: T3, Human MC4 (Homo sapiens, UniProt P32245); design: CEREP off-target binding panel, per cent inhibition at 10 uM, n = 2
T3 construct: gene MC4R

Human MOP = target: T4, Human MOP (Homo sapiens, UniProt P35372); design: CEREP off-target binding panel, per cent inhibition at 10 uM, n = 2
T4 construct: gene OPRM1
T4 sequence (P35372 whole entry): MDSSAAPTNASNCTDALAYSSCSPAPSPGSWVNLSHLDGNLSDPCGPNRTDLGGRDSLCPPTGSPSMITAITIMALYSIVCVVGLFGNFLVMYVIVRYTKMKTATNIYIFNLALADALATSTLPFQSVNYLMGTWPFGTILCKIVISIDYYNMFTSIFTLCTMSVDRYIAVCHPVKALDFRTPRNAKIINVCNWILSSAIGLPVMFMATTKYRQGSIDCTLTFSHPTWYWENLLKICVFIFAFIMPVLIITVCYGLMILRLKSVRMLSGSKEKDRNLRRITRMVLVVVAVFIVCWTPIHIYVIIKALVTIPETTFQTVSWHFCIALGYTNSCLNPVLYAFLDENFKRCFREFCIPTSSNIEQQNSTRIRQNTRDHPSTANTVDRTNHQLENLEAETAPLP

Human NTS1 = target: T5, Human NTS1 (Homo sapiens, UniProt P30989); design: CEREP off-target binding panel, per cent inhibition at 10 uM, n = 2
T5 construct: gene NTSR1

Human D1 = target: T6, Human D1 (Homo sapiens, UniProt P21728); design: CEREP off-target binding panel, per cent inhibition at 10 uM, n = 2
T6 construct: gene DRD1

Human 5-HT5A = target: T7, Human 5-HT5A (Homo sapiens, UniProt P47898); design: CEREP off-target binding panel, per cent inhibition at 10 uM, n = 2
T7 construct: gene HTR5A

Human NK2 = target: T8, Human NK2 (Homo sapiens, UniProt P21452); design: CEREP off-target binding panel, per cent inhibition at 10 uM, n = 2
T8 construct: gene TACR2

Human DOP = target: T9, Human DOP (Homo sapiens, UniProt P41143); design: CEREP off-target binding panel, per cent inhibition at 10 uM, n = 2
T9 construct: gene OPRD1

Human H2 = target: T10, Human H2 (Homo sapiens, UniProt P25021); design: CEREP off-target binding panel, per cent inhibition at 10 uM, n = 2
T10 construct: gene HRH2
T10 sequence (P25021 whole entry): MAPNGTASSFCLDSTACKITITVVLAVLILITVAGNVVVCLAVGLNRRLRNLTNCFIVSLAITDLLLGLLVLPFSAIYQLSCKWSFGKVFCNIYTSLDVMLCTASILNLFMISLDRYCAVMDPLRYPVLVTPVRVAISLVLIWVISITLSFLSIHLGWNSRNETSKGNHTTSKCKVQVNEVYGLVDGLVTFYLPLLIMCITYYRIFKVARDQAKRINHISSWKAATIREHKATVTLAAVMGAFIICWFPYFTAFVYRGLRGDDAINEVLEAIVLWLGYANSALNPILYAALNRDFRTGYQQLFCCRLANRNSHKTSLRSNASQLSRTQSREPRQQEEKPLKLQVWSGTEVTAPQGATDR

Human CB1 = target: T11, Human CB1 (Homo sapiens, UniProt P21554); design: CEREP off-target binding panel, per cent inhibition at 10 uM, n = 2
T11 construct: gene CNR1

Human 5-HT2B = target: T12, Human 5-HT2B (Homo sapiens, UniProt P41595); design: CEREP off-target binding panel, per cent inhibition at 10 uM, n = 2
T12 construct: gene HTR2B
T12 sequence (P41595 whole entry): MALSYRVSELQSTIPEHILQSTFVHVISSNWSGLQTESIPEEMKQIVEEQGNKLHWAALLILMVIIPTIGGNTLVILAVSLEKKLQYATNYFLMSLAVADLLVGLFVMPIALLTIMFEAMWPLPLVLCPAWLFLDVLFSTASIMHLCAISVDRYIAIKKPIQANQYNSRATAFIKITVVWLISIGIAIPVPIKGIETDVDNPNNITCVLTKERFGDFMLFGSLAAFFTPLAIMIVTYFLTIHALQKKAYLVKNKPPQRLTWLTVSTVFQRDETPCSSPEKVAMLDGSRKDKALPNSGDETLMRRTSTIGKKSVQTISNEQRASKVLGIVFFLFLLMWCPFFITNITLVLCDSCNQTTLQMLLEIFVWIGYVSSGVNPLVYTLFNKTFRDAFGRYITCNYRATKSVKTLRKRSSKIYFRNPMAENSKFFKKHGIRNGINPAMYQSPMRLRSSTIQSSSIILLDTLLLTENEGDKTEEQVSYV

Human 5-HT1A = target: T13, Human 5-HT1A (Homo sapiens, UniProt P08908); design: CEREP off-target binding panel, per cent inhibition at 10 uM, n = 2
T13 construct: gene HTR1A

Human KOP = target: T14, Human KOP (Homo sapiens, UniProt P41145); design: CEREP off-target binding panel, per cent inhibition at 10 uM, n = 2
T14 construct: gene OPRK1
T14 sequence (P41145 whole entry): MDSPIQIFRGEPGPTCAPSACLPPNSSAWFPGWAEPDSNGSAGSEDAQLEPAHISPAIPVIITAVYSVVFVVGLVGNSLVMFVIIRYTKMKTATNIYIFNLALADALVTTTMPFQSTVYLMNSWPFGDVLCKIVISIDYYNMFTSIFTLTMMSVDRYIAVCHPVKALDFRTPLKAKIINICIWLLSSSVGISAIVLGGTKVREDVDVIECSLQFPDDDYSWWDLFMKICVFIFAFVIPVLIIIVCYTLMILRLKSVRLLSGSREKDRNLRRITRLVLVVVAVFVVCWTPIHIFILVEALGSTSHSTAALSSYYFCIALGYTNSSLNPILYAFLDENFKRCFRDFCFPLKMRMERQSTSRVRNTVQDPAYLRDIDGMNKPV

Human AT1 = target: T15, Human AT1 (Homo sapiens, UniProt P30556); design: CEREP off-target binding panel, per cent inhibition at 10 uM, n = 2
T15 construct: gene AGTR1
T15 sequence (P30556 whole entry): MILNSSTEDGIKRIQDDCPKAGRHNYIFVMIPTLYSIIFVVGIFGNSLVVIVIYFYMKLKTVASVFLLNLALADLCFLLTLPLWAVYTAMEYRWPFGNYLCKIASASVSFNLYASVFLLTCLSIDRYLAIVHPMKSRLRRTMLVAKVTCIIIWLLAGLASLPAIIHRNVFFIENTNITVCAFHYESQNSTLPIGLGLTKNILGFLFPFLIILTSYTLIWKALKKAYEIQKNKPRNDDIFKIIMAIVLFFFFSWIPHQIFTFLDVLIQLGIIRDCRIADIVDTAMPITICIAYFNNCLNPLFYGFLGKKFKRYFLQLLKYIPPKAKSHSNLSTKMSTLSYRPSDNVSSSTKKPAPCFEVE

CYP2C8 = CYP2C8 (Homo sapiens, UniProt P10632); design: CYP off-target inhibition panel
Sequence of CYP2C8 (P10632 whole entry): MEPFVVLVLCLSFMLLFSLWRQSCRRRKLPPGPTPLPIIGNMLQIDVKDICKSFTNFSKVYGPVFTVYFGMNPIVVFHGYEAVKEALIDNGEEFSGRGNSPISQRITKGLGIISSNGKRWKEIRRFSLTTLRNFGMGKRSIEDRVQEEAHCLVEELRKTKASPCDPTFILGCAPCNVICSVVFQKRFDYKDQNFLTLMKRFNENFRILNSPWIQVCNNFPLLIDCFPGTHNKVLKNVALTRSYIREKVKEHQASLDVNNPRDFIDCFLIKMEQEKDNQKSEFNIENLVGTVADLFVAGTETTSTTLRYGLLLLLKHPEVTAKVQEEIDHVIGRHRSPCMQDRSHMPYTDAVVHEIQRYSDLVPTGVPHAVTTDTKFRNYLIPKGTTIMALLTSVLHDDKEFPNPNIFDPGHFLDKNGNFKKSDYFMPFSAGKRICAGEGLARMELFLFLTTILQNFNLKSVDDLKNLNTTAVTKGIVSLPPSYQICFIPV

CYP2C9 = CYP2C9 (Homo sapiens, UniProt P11712); design: CYP off-target inhibition panel
Sequence of CYP2C9 (P11712 whole entry): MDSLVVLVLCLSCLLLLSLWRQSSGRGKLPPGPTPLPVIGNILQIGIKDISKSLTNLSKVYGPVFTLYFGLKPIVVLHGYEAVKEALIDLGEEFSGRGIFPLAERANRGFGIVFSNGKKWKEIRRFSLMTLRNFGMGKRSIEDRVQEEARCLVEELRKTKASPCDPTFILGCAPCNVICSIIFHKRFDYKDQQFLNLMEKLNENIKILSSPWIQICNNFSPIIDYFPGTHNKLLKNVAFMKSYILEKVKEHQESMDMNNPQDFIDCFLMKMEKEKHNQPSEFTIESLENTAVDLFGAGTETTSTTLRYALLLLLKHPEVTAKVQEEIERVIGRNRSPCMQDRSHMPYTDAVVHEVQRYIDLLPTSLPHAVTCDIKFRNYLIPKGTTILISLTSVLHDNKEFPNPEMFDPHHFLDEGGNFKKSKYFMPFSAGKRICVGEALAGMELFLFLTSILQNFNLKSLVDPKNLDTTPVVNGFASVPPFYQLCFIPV

Human B2 = target: T16, Human B2 (Homo sapiens, UniProt P30411); design: CEREP off-target binding panel, per cent inhibition at 10 uM, n = 2
T16 construct: gene BDKRB2

Human 5-HT transporter = target: T17, Human 5-HT transporter (Homo sapiens, UniProt P31645); design: CEREP off-target binding panel, per cent inhibition at 10 uM, n = 2
T17 construct: gene SLC6A4

CYP1A2 = CYP1A2 (Homo sapiens, UniProt P05177); design: CYP off-target inhibition panel
[1] = target: T18, Human norepinephrine transporter (Homo sapiens, UniProt P23975); design: CEREP off-target binding panel, per cent inhibition at 10 uM, n = 2
T18 construct: gene SLC6A2
T18 sequence (P23975 whole entry): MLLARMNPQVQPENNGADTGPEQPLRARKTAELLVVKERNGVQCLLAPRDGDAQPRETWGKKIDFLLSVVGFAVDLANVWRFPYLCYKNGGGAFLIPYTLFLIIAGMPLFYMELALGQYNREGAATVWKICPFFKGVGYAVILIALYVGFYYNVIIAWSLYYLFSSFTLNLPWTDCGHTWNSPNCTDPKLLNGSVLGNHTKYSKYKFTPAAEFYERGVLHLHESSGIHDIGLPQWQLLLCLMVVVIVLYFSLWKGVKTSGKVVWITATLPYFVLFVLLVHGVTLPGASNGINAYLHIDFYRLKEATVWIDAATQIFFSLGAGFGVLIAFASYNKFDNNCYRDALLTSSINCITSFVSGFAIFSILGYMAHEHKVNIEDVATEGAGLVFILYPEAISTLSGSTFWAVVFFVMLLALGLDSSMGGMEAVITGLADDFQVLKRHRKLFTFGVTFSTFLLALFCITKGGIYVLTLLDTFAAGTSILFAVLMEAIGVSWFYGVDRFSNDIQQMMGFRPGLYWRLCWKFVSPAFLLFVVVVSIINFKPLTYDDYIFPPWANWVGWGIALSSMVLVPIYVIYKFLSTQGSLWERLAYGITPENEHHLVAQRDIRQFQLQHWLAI

GAL2 = target: T19, GAL2 (Homo sapiens, UniProt O43603); design: CEREP radioligand binding panel, percent inhibition of specific binding
T19 construct: gene GALR2

CCK1 = target: T20, CCK1 (Homo sapiens, UniProt P32238); design: CEREP radioligand binding panel, percent inhibition of specific binding
T20 construct: gene CCKAR
T20 sequence (P32238 whole entry): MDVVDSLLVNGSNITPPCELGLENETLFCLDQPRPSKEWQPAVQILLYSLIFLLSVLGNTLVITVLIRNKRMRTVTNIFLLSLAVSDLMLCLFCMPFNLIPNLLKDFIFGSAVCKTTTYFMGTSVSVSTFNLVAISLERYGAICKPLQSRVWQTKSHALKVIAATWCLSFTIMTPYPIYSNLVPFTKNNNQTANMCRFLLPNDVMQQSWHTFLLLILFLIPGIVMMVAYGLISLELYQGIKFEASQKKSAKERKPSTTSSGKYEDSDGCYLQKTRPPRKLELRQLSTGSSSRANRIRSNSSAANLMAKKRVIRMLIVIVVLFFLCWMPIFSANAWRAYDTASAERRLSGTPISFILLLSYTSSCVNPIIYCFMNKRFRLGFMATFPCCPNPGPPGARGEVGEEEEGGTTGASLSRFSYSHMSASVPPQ

MT1 = target: T21, MT1 (Homo sapiens, UniProt P48039); design: CEREP radioligand binding panel, percent inhibition of specific binding
T21 construct: gene MTNR1A
T21 sequence (P48039 whole entry): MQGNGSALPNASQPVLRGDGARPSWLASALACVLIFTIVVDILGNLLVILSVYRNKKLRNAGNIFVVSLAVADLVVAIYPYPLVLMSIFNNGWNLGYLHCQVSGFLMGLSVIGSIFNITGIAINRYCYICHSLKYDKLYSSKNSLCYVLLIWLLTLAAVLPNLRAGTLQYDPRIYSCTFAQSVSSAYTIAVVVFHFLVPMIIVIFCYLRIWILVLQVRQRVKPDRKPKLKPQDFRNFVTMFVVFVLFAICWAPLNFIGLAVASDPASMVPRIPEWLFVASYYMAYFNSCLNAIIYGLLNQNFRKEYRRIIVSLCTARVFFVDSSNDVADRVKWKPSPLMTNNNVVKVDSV

CYP2B6 = CYP2B6 (Homo sapiens, UniProt P20813); design: CYP off-target inhibition panel
From the text: These examples have been of interest as tool compounds in commercial development (indicated by patent numbers in Figure 3). […] Initially, [compound left out] was utilized as substrate in this reaction owing to its improved solubility over cholesterol, enabling better run to run reproducibility ([Mast et al., 2003]).

[2] = target: T22, Human dopamine transporter (Homo sapiens, UniProt Q01959); design: CEREP off-target binding panel, per cent inhibition at 10 uM, n = 2
T22 construct: gene SLC6A3

Row | SMILES | inhibition at 10 µM (Human Eta) [%] | inhibition at 10 µM (Human A2A) [%] | inhibition at 10 µM (Human MC4) [%] | inhibition at 10 µM (Human MOP) [%] | inhibition at 10 µM (Human NTS1) [%] | inhibition at 10 µM (Human D1) [%] | inhibition at 10 µM (Human 5-HT5A) [%] | inhibition at 10 µM (Human NK2) [%] | inhibition at 10 µM (Human DOP) [%] | inhibition at 10 µM (Human H2) [%] | inhibition at 10 µM (Human CB1) [%] | inhibition at 10 µM (Human 5-HT2B) [%] | inhibition at 10 µM (Human 5-HT1A) [%] | inhibition at 10 µM (Human KOP) [%] | inhibition at 10 µM (Human AT1) [%] | inhibition at 10 µM (Human B2) [%] | inhibition at 10 µM (Human 5-HT transporter) [%] | inhibition at 10 µM [1] [%] | inhibition at 10 µM (GAL2) [%] | inhibition at 10 µM (CCK1) [%] | also measured
1 | O=C(c1cnc2c(-c3cnco3)cc(C(F)(F)F)cn12)N1C2CCC1COC2 [compound 1, (3-oxa-8-azabicyclo[3.2.1]octan-8-yl)(8-(oxazol-5-yl)-6-(trifluoromethyl)imidazo[1,2-a]pyridin-3-yl)methanone] | -25.8 | 1.1 | 4.5 | -0.7 | -9.7 | 2.4 | -12.5 | -7.9 | -6.2 | -6.2 | -34.7 | -2.8 | 12.4 | 8 | -3.7 | 6.9 | 1.2 | -14.5 | -7.2 | 7.1 | IC50 (CYP2C8): > 50 µM; IC50 (CYP2C9): > 50 µM; IC50 (CYP1A2): 6.29 µM; inhibition at 10 µM (MT1): 1.7%; IC50 (CYP2B6): > 50 µM; inhibition at 10 µM [2]: 2.1%
2 | O=C(c1cccnc1-c1ccncn1)N1CCC(O)(Cc2ccc(F)cc2)CC1 [compound 2, (4-(4-fluorobenzyl)-4-hydroxypiperidin-1-yl)(2-(pyrimidin-4-yl)pyridin-3-yl)methanone] | -35.5 | -2.6 | 9.8 | 2.5 | -12.2 | -5.3 | 9.6 | -1.4 | -5.8 | -5.4 | -9.2 | -2.4 | 10.8 | -5.2 | -3.2 | 8.4 | 0.1 | -3.6 | 0 | -4.7 | IC50 (CYP2C8; read-out: compound 2): > 50 µM; IC50 (CYP2C9; read-out: compound 2): > 50 µM; IC50 (CYP1A2; read-out: compound 2): > 50 µM; inhibition at 10 µM (MT1): 8.3%; IC50 (CYP2B6; read-out: compound 2): > 50 µM; inhibition at 10 µM [2]: 13.8%
